Target: T1, Human HDAC10 (Homo sapiens, UniProt Q969S8)
T1 construct: Amino acids 1-631 with Nterminal GST tag, MW=96 kDa; GST (N); purchased BioMol SE-559; host or cells: Sf9 cells, baculovirus
T1 sequence (Q969S8 1-631): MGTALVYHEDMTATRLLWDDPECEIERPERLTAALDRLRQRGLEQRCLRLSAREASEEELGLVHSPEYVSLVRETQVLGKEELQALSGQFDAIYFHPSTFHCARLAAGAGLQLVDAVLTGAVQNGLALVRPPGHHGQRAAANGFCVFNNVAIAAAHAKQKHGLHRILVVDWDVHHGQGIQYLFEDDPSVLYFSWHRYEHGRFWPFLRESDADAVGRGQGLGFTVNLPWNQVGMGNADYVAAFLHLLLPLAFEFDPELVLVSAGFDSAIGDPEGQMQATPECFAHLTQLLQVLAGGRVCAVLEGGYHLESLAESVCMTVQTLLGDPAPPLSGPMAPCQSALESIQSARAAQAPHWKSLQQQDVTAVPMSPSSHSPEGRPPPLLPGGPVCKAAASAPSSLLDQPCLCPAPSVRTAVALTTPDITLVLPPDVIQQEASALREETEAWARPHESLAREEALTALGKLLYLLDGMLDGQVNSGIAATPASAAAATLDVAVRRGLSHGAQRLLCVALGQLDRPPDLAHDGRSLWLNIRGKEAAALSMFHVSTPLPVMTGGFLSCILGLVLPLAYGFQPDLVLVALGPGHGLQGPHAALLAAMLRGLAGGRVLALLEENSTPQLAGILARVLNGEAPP
Assay: In vitro HDAC10 inhibition, fluorogenic peptide assay
Assay type: biochemical
Conditions: for IC50: read-out: IC50 (nM) of enzyme activity HDAC10
Experimental: All HDAC assays were performed using acetylated AMC-labeled peptide substrate: • Substrate for isoforms HDAC1, 2, 3, 4, 5, 6, 7, 9, 10, 11 and HeLa nuclear extract assays: Acetylated fluorogenic peptide from p53 residues 379-382 (RHKKAc) (BioMol. Cat. # KI-104). • Substrate for HDAC8 assays: Acetylated fluorogenic peptide from p53 residues 379-382 (RHKAcKAc) (BioMol. Cat. # KI-178).
Enzymes: • HDAC1 assay: 75 nM Human HDAC1 (GenBank Accession No. NM_004964): Full length with C-terminal GST tag, MW=79.9 kDa, expressed by baculovirus expression system in Sf9 cells (BioMol. Cat. # SE-456). • HDAC2 assay: 5 nM Human HDAC2 (GenBank Accession No. Q92769): Full length with C-terminal His tag, MW=60 kDa, expressed by baculovirus expression system in Sf9 cells (BioMol. Cat. # SE-500). • HDAC3 assay: 2.3 nM Human HDAC3/NcoR2 (GenBank Accession No. NM_003883 for HDAC3, GenBank Accession No.NM_006312 for NcoR2): Complex of human HDAC3, full length with C-terminal His tag, MW=49.7 kDa, and human NCOR2, N-terminal GST tag, MW=39 kDa, co-expressed in baculovirus expression system (BioMol. Cat. # SE-507). • HDAC4 assay: 266 nM Human HDAC4 (GenBank Accession No. NM_006037): Amino acids 627-1085 with N-terminal GST tag, MW=75.2 kDa, expressed in baculovirus expression system (BioMol, Hamburg, Germany). • HDAC5 assay: 588 nM Human HDAC5 (GenBank Accession No. NM_001015053): Full length with Nterminal GST tag, MW=150 kDa, expressed by baculovirus expression system in Sf9 cells (BioMol, Hamburg, Germany). • HDAC6 assay: 13 nM Human HDAC6 (GenBank Accession No. BC069243): Full length with N-terminal GST tag, MW=159 kDa, expressed by baculovirus expression system in Sf9 cells (BioMol. Cat. # SE-508). • HDAC7 assay: 962 nM Human HDAC7 (GenBank Accession No. AY302468): Amino acids 518-end with N-terminal GST tag, MW=78 kDa, expressed in baculovirus expression system (BioMol, Hamburg, Germany). • HDAC8 assay: 119 nM Human HDAC8 (GenBank Accession No. NM018486): Full length, MW=42 kDa, expressed in an E. coli expression system (BioMol. […]
The reactions were carried out in a 96-well microplate for fluorometry in a 50 μl reaction volume. […] The reaction was allowed to develop for 45 minutes at 30° C. with 5% CO2; then the fluorescent signal was measured with an excitation wavelength at 360 nm and an emission wavelength at 460 nm in a microplate-reading fluorometer (GeminiXS; Molecular Devices, Sunnyvale, Calif.). […] IC50 was calculated by fitting the experimental data to a dose-response curve. […]

Row | SMILES | Selectivity against HDAC6 (IC50 HDACx/IC50 HDAC6) HDAC10 (IC50 HDAC10/IC50 HDAC6) | IC50
1 | COc1ccc(-c2cc(-c3ccccc3)[nH]c2C(=O)NCCCCCC(=O)NO)cc1 [Compound A, N-[6-(hydroxyamino)-6-oxohexyl]-3-(4-methoxyphenyl)-5-phenyl-1H-pyrrole-2-carboxamide, reference compound] | 17.3 | 346 nM
2 | O=C(CCCCCNC(=O)c1[nH]c(-c2ccc(O)cc2)cc1-c1ccoc1)NO [Example 5, 3-(3-furyl)-N-(5-(hydroxycarbamoyl)pentyl)-5-(4-hydroxy-phenyl)-1H-pyrrole-2-carboxamide] |  | 14 nM
3 | O=C(CCCCCNC(=O)c1[nH]c(-c2ccc(O)cc2)cc1-c1ccsc1)NO [Example 6, N-(5-(hydroxycarbamoyl)pentyl)-5-(4-hydroxyphenyl)-3-(3-thienyl)-1H-pyrrole-2-carboxamide] |  | 47 nM
